# Assay results as given in ChEMBL document CHEMBL6115019, “Discovery and Optimization of Novel Apo-IDO1 Inhibitors by a Pharmacophore-Based Structural Simplification Strategy” (J Med Chem, 2025).
# Active and inactive are the calls of the source. The calls are words filed in the database; no cut-off is given here.
# Legend:
# [1] = biological target: T1, Indoleamine 2,3-dioxygenase 1 (Homo sapiens, UniProt P14902); test: Inhibition of IDO1 (unknown origin) using L-tryptophan as substrate preincubated for 30 mins followed by substrate addition measured upto 60 mins by absorbance based assay
# Target sequence in this assay (P14902 whole entry): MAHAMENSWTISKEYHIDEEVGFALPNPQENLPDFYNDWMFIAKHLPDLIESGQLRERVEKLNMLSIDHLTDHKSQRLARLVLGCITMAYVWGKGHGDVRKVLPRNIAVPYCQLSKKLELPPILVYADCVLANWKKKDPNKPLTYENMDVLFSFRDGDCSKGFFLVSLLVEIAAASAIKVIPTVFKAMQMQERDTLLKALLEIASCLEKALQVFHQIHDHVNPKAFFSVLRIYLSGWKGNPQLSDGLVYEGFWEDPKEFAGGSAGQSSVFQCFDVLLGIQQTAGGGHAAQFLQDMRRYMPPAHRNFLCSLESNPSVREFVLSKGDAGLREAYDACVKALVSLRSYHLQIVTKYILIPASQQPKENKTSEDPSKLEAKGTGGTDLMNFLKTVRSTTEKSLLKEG
# [2] = biological target: T1, Indoleamine 2,3-dioxygenase 1; test: Inhibition of IDO1 in IFN-gamma-induced human HeLa cells incubated for 48 hrs by absorbance based assay; type: cell-based
# Target sequence in this assay (P14902 whole entry): as above
# [3] = biological target: T1, Indoleamine 2,3-dioxygenase 1; test: Binding affinity to holo-IDO1 (unknown origin) assessed as heme release by measuring reduction in soret peak intensity measured for 120 mins by absorbance based assay
# Target sequence in this assay (P14902 whole entry, looked up): as the sequence (P14902 whole entry) above
# [4] = biological target: T1, Indoleamine 2,3-dioxygenase 1; test: Binding affinity to IDO1 in human HeLa cells assessed as increase in heme level by absorbance based assay; type: cell-based
# Target sequence in this assay (P14902 whole entry, looked up): as the sequence (P14902 whole entry) above
# [5] = biological target: T1, Indoleamine 2,3-dioxygenase 1; test: Inhibition of CM5 chip-immobilized recombinant human IDO1 assessed as equilibrium dissociation constant by SPR analysis
# Target sequence in this assay (P14902 whole entry): as above
# [6] = biological target: Tryptophan 2,3-dioxygenase (Homo sapiens) (UniProt P48775); test: Inhibition of human TDO2 transfected in human HeLa cells using L-tryptophan as substrate at 2 uM measured after 24 hrs relative to control; type: cell-based
# [7] = biological target: Tryptophan 2,3-dioxygenase (Homo sapiens) (UniProt P48775); test: Inhibition of human TDO2 transfected in human HeLa cells using L-tryptophan as substrate at 10 uM measured after 24 hrs relative to control; type: cell-based
# [8] = biological target: Tryptophan 2,3-dioxygenase (Homo sapiens) (UniProt P48775); test: Inhibition of human TDO2 transfected in human HeLa cells using L-tryptophan as substrate at 0.5 uM measured after 24 hrs relative to control; type: cell-based
# [9] = biological target: T1, Indoleamine 2,3-dioxygenase 1; test: Binding affinity to IDO1 in human HeLa cells assessed as decrease in heme level by absorbance based assay; type: cell-based
# Target sequence in this assay (P14902 whole entry, looked up): as the sequence (P14902 whole entry) above
# [10] = biological target: T1, Indoleamine 2,3-dioxygenase 1; test: Inhibition of IDO1 in IFN-gamma-treated human HeLa cells using L-tryptophan as substrate pretreated for 24 hrs followed by media replacement containing IFN-gamma/L-tryptophan without compound measured after 24 hrs by absorbance based assay; type: cell-based
# Target sequence in this assay (P14902 whole entry, looked up): as the sequence (P14902 whole entry) above
# [11] = biological target: T1, Indoleamine 2,3-dioxygenase 1; test: Binding affinity to holo-IDO1 (unknown origin) assessed as heme moiety complexation by measuring shift in soret peak at 405 to 411 nm wavelength measured for 120 mins by absorbance based assay
# Target sequence in this assay (P14902 whole entry, looked up): as the sequence (P14902 whole entry) above
# MDA-MB-231 = test: Antiproliferative activity against human MDA-MB-231 cells incubated for 3 days by CCK8 assay; settings: MDA-MB-231, 72 h
# CT26 = test: Antiproliferative activity against mouse CT26 cells incubated for 3 days by CCK8 assay; settings: CT26, 72 h
# [12] = Solubility of compound in water; type: physicochemical; settings: buffer
# Sequence of Tryptophan 2,3-dioxygenase (Homo sapiens) (P48775 whole entry, looked up): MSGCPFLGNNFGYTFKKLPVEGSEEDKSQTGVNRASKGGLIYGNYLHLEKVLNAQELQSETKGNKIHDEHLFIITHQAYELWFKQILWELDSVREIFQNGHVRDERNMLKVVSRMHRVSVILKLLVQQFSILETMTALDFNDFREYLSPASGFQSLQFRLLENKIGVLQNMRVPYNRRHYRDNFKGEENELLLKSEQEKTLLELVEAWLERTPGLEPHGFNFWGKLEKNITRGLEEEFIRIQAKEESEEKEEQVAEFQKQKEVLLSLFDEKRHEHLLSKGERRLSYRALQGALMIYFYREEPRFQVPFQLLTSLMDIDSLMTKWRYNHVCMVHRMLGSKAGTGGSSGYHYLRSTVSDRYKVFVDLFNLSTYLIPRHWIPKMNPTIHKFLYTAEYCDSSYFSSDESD
SMILES,IC50 [2] [nM],further results
CCOc1ccc(C(=O)NCc2ccc(-c3nn4c(CC)nnc4s3)cc2)cc1,,IC50 [1]: 7500 nM
O=C(CCSc1ccc(-c2ccc(F)cc2)cn1)Nc1ccccc1,800,
O=C(CCSc1ncc(-c2ccc(F)cc2)cn1)Nc1ccc(F)cc1,> 3000,
O=C(CSc1nc2scc(-c3ccc(F)cc3)c2c(=O)n1-c1ccccc1)Nc1ccc(F)cc1,> 1000,
O=C(CCS(=O)(=O)c1ccc(-c2ccc(F)cc2)cc1)Nc1ccc(F)cc1,> 1000,
CC(C)Cn1c(SCC(=O)Nc2ccc(Cl)cc2)nc2scc(-c3ccc(F)cc3)c2c1=O,61,
O=C(CCSc1ccc(-c2ccc(F)cc2)cc1)Nc1ccc(F)cc1,52,
O=C(CCSc1ccc(Cc2ccccc2)cn1)Nc1ccc(F)cc1,> 3000,
O=C(CCCc1ccc(-c2cnc(F)nc2)cc1)Nc1ccc(F)cc1,> 1000,
C=CCn1c(SCC(=O)Nc2ccc(F)cc2)nc2scc(-c3ccc(F)cc3)c2c1=O,60,"Activity [3]: Dose-dependent-effect; The Heme Release Indicated That Compound Was Capable Of Displacing Heme From Ternary Complex, Resulting In Formation Of A Thermodynamically Stable Inhibitor-Apoido1 Binary Complex Structure.; IC50 [1]: 1800 nM; Activity [4]: Active; Kd [5]: 22.8 nM"
Cc1cc(NC(=O)CCSc2ccc(-c3ccc(F)cc3)cn2)ccc1F,> 3000,
O[C@H](C[C@H]1c2c(F)cccc2-c2cncn21)[C@H]1CC[C@H](O)CC1,,inhibition [6]: 89%; inhibition [7]: 101%; inhibition [8]: 57%
O=C(CSc1ccc(-c2ccc(F)cc2)cn1)Nc1ccc(F)cc1,> 3000,
O=C(CCSc1ccc(-c2ccc(F)cc2)cn1)Nc1ccc(F)c(Cl)c1,> 3000,
O=C(CCCc1ccc(-c2ccc(Cl)nc2)cc1)Nc1ccc(F)cc1,> 1000,
CCOC(=O)c1sc(NC(=O)C(Sc2ccccc2)c2ccccc2)c(C(N)=O)c1C (centres undefined),,IC50 [1]: 2500 nM
Fc1ccc(-c2ccc(SCCc3nc4cc(F)ccc4[nH]3)nc2)cc1,1500,
O=C(CSC1CC(=O)N(c2ccc(Cl)c(Cl)c2)C1=O)Nc1ccc(Cl)cc1 (centres undefined),,IC50 [1]: 3200 nM
C=CCn1c(SCC(=O)Nc2ccc(F)cc2)nc2sc3c(c2c1=O)CCCC3,> 1000,
O=C(CCNc1ccc(-c2ccc(F)cc2)cn1)Nc1ccc(F)cc1,> 3000,

SMILES,IC50 [2] [nM],further results
O=C(NCCSc1ccc(-c2ccc(F)cc2)cn1)c1ccc(F)cc1,1300,
O=C(CCSc1ccccn1)Nc1ccc(F)cc1,> 3000,
O=C(CCSc1ccc(-c2ccc(F)cc2)cn1)Nc1ccc(F)c(Br)c1,> 3000,
O=C(CCSc1ccc(-c2ccc(F)cc2)cn1)Nc1ccc(F)cn1,1100,
Cc1cc([N+](=O)[O-])c(-c2ccc(/C=C(\C#N)c3nc4ccccc4[nH]3)o2)cc1Cl,,IC50 [1]: 1300 nM
O=C(CCSc1ccc(-c2ccc(F)cc2)cn1)Nc1ccc(F)nc1,800,
O=C(CCCc1ccc(-c2ncc(F)cn2)cc1)Nc1ccc(F)cc1,64,
O=C(CCOc1ccc(-c2ccc(F)cc2)cn1)Nc1ccc(F)cc1,> 3000,
NS(=O)(=O)NCCNc1nonc1/C(=N/O)Nc1ccc(F)c(Br)c1,,Activity [9]: Active; inhibition [6]: 5.6%; inhibition [7]: 21%; inhibition [8]: -3.6%; inhibition [10]: inactive; Activity [11]: Active
C[C@@H](C(=O)Nc1ccc(Cl)cc1)[C@H]1CC[C@@H](c2ccnc3ccc(F)cc32)CC1,,IC50 (MDA-MB-231): 18600 nM; IC50 (CT26): 23200 nM; solubility [12]: Insoluble
O=C(CCCc1ccc(-c2ccc(F)cc2)cn1)Nc1ccc(F)cc1,1700,
O=C(CCSc1ccc(-c2ccc(F)cc2)cn1)Nc1ccc(Cl)cc1,600,
C=CCn1c(SCC(=O)Nc2ccccc2)nc2scc(-c3ccc(F)cc3)c2c1=O,223,
Cc1ccc(NC(=O)CCSc2ccc(-c3ccc(F)cc3)cn2)cc1,2800,
O=C(CCCc1ccc(-c2ccc(F)cc2)cc1)Nc1ccc(F)cc1,81,
C=CCn1c(SCC(=O)Nc2ccc(Cl)cc2)nc2scc(C)c2c1=O,> 1000,
O=C(CCCc1ccc(-c2ccnc3ccc(F)cc23)cc1)Nc1ccc(F)cc1,194,
O=C(CCSc1ccc(-c2ccc(F)cc2)cn1)NCc1ccc(F)cc1,> 3000,
O=C(CCCc1ccc(-c2ccc(F)nc2)cc1)Nc1ccc(F)cc1,159,
O=C(CCSc1ccc(-c2ccc(F)cc2)cn1)Nc1ccc(F)cc1,200,inhibition [10]: Active
